Reference: ChEMBL document CHEMBL1649182, “Binding of faropenem and other beta-lactam agents to penicillin-binding proteins of pneumococci with various beta-lactam susceptibilities” (Antimicrob Agents Chemother, 2009)
Converted amounts (≈) assume the structure as drawn.

How the values were obtained:
[1] = Displacement of Biocillin FL from Streptococcus pneumoniae 24 PBP3
[2] = Displacement of Biocillin FL from Streptococcus pneumoniae 2527 PBP1B
[3] = Displacement of Biocillin FL from Streptococcus pneumoniae 3676 PBP1B
[4] = Displacement of Biocillin FL from Streptococcus pneumoniae 2527 PBP3
[5] = Displacement of Biocillin FL from Streptococcus pneumoniae 3665 PBP3
Streptococcus pneumoniae [6] = assay: Antimicrobial activity against penicillin-resistant Streptococcus pneumoniae 2527 by CLSI method; type: functional
[7] = target: T1, Penicillin-binding protein 2x (Streptococcus pneumoniae serotype 4 (strain ATCC BAA-334 / TIGR4), UniProt P14677); assay: Displacement of Biocillin FL from Streptococcus pneumoniae 3243 PBP2X
T1 sequence (P14677 whole entry): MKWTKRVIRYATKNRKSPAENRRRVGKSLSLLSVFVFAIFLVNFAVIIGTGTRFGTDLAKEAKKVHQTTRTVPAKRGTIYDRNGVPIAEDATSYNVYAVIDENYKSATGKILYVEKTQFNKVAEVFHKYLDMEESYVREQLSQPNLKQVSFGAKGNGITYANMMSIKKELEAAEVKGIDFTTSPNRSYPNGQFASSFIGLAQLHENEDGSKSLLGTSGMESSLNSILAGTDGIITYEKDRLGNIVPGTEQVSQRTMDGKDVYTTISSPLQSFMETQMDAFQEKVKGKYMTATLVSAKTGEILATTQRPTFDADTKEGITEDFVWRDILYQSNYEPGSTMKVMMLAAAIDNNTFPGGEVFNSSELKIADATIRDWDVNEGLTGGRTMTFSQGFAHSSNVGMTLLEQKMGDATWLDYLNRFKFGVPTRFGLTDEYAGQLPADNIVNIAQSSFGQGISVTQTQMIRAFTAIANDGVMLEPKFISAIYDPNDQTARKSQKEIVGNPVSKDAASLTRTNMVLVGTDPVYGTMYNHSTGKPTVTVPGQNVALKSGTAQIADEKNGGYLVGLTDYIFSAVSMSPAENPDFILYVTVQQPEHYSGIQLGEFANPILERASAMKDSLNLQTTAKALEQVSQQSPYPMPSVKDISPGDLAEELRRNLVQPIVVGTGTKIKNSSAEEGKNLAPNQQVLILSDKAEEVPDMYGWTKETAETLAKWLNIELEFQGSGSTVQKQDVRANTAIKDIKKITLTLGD

[8] = Displacement of Biocillin FL from Streptococcus pneumoniae 24 PBP2X
[9] = target: T1, Penicillin-binding protein 2x; assay: Displacement of Biocillin FL from Streptococcus pneumoniae 1077 PBP2X
Streptococcus pneumoniae [10] = assay: Antimicrobial activity against Streptococcus pneumoniae 1564 by CLSI method; type: functional
[11] = target: T2, Penicillin-binding protein 1A (Streptococcus pneumoniae serotype 4 (strain ATCC BAA-334 / TIGR4), UniProt Q04707); assay: Displacement of Biocillin FL from Streptococcus pneumoniae 2527 PBP1A
T2 sequence (Q04707 whole entry): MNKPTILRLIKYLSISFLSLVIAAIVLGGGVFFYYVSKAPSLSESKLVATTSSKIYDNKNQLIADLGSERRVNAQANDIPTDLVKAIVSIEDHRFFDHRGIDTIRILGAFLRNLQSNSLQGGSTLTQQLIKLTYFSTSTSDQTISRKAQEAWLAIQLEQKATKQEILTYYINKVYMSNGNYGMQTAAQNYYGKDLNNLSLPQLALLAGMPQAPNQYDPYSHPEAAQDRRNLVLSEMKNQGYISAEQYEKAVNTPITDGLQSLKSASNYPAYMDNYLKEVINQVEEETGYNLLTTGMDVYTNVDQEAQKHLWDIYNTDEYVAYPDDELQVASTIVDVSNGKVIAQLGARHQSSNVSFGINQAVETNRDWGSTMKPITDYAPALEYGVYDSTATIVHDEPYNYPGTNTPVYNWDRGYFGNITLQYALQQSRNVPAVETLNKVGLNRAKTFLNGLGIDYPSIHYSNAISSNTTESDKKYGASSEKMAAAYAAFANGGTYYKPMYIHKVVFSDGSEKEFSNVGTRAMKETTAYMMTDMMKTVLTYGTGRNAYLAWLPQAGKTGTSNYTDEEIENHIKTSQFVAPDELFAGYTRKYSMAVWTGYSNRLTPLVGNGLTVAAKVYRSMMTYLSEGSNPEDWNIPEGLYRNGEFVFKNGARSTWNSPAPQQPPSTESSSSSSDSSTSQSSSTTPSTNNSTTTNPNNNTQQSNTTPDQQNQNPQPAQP

[12] = target: T3, Penicillin-binding protein 2B (Streptococcus pneumoniae serotype 4 (strain ATCC BAA-334 / TIGR4), UniProt P0A3M5); assay: Displacement of Biocillin FL from Streptococcus pneumoniae 1077 PBP2B
T3 sequence (P0A3M5 whole entry): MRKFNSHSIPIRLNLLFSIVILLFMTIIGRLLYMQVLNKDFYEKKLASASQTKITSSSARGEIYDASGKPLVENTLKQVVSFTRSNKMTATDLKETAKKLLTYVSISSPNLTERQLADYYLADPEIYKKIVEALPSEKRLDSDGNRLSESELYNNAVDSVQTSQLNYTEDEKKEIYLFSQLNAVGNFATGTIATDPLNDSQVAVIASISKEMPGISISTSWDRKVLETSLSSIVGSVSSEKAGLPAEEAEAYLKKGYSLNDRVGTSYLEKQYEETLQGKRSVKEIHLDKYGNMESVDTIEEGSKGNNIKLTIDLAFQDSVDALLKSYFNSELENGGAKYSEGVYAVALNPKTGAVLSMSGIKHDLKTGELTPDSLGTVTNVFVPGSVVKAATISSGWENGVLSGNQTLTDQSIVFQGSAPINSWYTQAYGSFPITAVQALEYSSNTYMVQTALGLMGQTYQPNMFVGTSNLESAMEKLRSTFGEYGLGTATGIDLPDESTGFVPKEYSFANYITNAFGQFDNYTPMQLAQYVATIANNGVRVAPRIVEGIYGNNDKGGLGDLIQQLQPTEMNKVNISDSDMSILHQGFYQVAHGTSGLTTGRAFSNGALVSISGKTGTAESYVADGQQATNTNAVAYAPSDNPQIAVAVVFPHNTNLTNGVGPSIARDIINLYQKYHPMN

[13] = Displacement of Biocillin FL from Streptococcus pneumoniae 3243 PBP3
Streptococcus pneumoniae [14] = assay: Antimicrobial activity against penicillin-intermediate Streptococcus pneumoniae 3243 by CLSI method; type: functional
[15] = Displacement of Biocillin FL from Streptococcus pneumoniae 3009 PBP3
[16] = target: T2, Penicillin-binding protein 1A; assay: Displacement of Biocillin FL from Streptococcus pneumoniae 3413 PBP1A
[17] = target: T2, Penicillin-binding protein 1A; assay: Displacement of Biocillin FL from Streptococcus pneumoniae 3676 PBP1A
[18] = Displacement of Biocillin FL from Streptococcus pneumoniae 3009 PBP2A
[19] = Displacement of Biocillin FL from Streptococcus pneumoniae 3009 PBP1B
[20] = target: T3, Penicillin-binding protein 2B; assay: Displacement of Biocillin FL from Streptococcus pneumoniae 3243 PBP2B
[21] = target: T3, Penicillin-binding protein 2B; assay: Displacement of Biocillin FL from Streptococcus pneumoniae 3413 PBP2B

SMILES | IC50 [1] | IC50 [2] | IC50 [3] | IC50 [4] | IC50 [5] | MIC (Streptococcus pneumoniae [6]) | IC50 [7] | IC50 [8] | IC50 [9] | MIC (Streptococcus pneumoniae [10]) | IC50 [11] | IC50 [12] | IC50 [13] | MIC (Streptococcus pneumoniae [14]) | IC50 [15] | IC50 [16] | IC50 [17] | IC50 [18] | IC50 [19] | IC50 [20] | also measured
CC1(C)S[C@@H]2[C@H](NC(=O)[C@H](N)c3ccc(O)cc3)C(=O)N2[C@H]1C(=O)O [AMOXICILLIN] | 0.049 µg/mL (≈ 0.134 µM) | 0.029 µg/mL (≈ 0.0794 µM) | 0.116 µg/mL (≈ 0.317 µM) | 0.022 µg/mL (≈ 0.0602 µM) | 0.019 µg/mL (≈ 0.052 µM) | 1 µg/mL (≈ 2.74 µM) | 49.3 nM | 0.117 µg/mL (≈ 0.32 µM) | 60.2 nM | 4 µg/mL (≈ 10.9 µM) | 134 nM | 82.1 nM | 0.006 µg/mL (≈ 0.0164 µM) | 0.06 µg/mL (≈ 0.164 µM) | 0.047 µg/mL (≈ 0.129 µM) | 339 nM | 1150 nM | 0.08 µg/mL (≈ 0.219 µM) | 0.059 µg/mL (≈ 0.161 µM) | 79.4 nM | IC50 [21]: 452 nM
CO/N=C(\C(=O)N[C@@H]1C(=O)N2C(C(=O)O)=C(COC(N)=O)CS[C@H]12)c1ccco1 [CEFUROXIME] | 0.002 µg/mL (≈ 0.00471 µM) | 0.028 µg/mL (≈ 0.066 µM) | 0.038 µg/mL (≈ 0.0895 µM) | 0.038 µg/mL (≈ 0.0895 µM) | 0.047 µg/mL (≈ 0.111 µM) | 8 µg/mL (≈ 18.9 µM) | 33 nM | 0.198 µg/mL (≈ 0.467 µM) | 14.1 nM | 8 µg/mL (≈ 18.9 µM) | 14.1 nM | 2740 nM | 0.023 µg/mL (≈ 0.0542 µM) | 0.25 µg/mL (≈ 0.589 µM) | 0.024 µg/mL (≈ 0.0566 µM) | 2.36 nM | 18.9 nM | 0.008 µg/mL (≈ 0.0189 µM) | 0.024 µg/mL (≈ 0.0566 µM) | 54.2 nM | IC50 [21]: 1.18 nM
C[C@@H](O)[C@H]1C(=O)N2C(C(=O)O)=C([C@H]3CCCO3)S[C@H]12 [FAROPENEM] | 0.015 µg/mL (≈ 0.0526 µM) | 0.002 µg/mL (≈ 0.00701 µM) | 0.005 µg/mL (≈ 0.0175 µM) | 0.007 µg/mL (≈ 0.0245 µM) | 0.005 µg/mL (≈ 0.0175 µM) | 1 µg/mL (≈ 3.5 µM) | 137 nM | 0.758 µg/mL (≈ 2.66 µM) | 687 nM | 0.03 µg/mL (≈ 0.105 µM) | 80.6 nM | 28 nM | 0.004 µg/mL (≈ 0.014 µM) | 0.125 µg/mL (≈ 0.438 µM) | 0.006 µg/mL (≈ 0.021 µM) | 56.1 nM | 87.6 nM | 0.016 µg/mL (≈ 0.0561 µM) | 0.002 µg/mL (≈ 0.00701 µM) | 45.6 nM | IC50 [21]: 498 nM
C[C@@H](O)[C@H]1C(=O)N2C(C(=O)O)=C(SCCNC=N)C[C@H]12 [IMIPENEM ANHYDROUS] | 0.2 µg/mL (≈ 0.668 µM) | 0.023 µg/mL (≈ 0.0768 µM) | 0.182 µg/mL (≈ 0.608 µM) | 0.034 µg/mL (≈ 0.114 µM) | 0.171 µg/mL (≈ 0.571 µM) | 0.25 µg/mL (≈ 0.835 µM) | 635 nM | 2.048 µg/mL (≈ 6.84 µM) | 598 nM | 0.125 µg/mL (≈ 0.418 µM) | 140 nM | 154 nM | 0.095 µg/mL (≈ 0.317 µM) | 0.016 µg/mL (≈ 0.0534 µM) | 0.039 µg/mL (≈ 0.13 µM) | 2070 nM | 838 nM | 0.054 µg/mL (≈ 0.18 µM) | 0.009 µg/mL (≈ 0.0301 µM) | 220 nM | IC50 [21]: 2890 nM
CC1(C)S[C@@H]2[C@H](NC(=O)Cc3ccccc3)C(=O)N2[C@H]1C(=O)O [PENICILLIN G] | 0.004 µg/mL (≈ 0.012 µM) | 0.009 µg/mL (≈ 0.0269 µM) | 0.021 µg/mL (≈ 0.0628 µM) | 0.014 µg/mL (≈ 0.0419 µM) | 0.01 µg/mL (≈ 0.0299 µM) | 2 µg/mL (≈ 5.98 µM) | 20.9 nM | 0.323 µg/mL (≈ 0.966 µM) | 23.9 nM | 16 µg/mL (≈ 47.8 µM) | 5.98 nM | 111 nM | 0.007 µg/mL (≈ 0.0209 µM) | 0.25 µg/mL (≈ 0.748 µM) | 0.001 µg/mL (≈ 0.00299 µM) | 59.8 nM | 35.9 nM | 0.011 µg/mL (≈ 0.0329 µM) | 0.001 µg/mL (≈ 0.00299 µM) | 182 nM | IC50 [21]: 532 nM
